Tests used:
Format in all cases: functional, Salmonella enterica subsp. enterica serovar Typhimurium
[1] = tested on: Salmonella typhimurium; test: Bacterial mutagenicity was measured against Salmonella Typhimurium TA97a at dose range of 0-400 ug/plate
[2] = tested on: Salmonella typhimurium; test: Bacterial mutagenicity was measured against Salmonella Typhimurium TA1538 at dose range of 0-200 ug/plate
[3] = tested on: Salmonella typhimurium; test: Bacterial mutagenicity was measured against Salmonella Typhimurium TA98 at dose range of 0-20 ug/plate
[4] = tested on: Salmonella typhimurium; test: Bacterial mutagenicity was measured against Salmonella Typhimurium TA1538 at dose range of 0-5 ug/plate
[5] = tested on: Salmonella typhimurium; test: Bacterial mutagenicity was measured against Salmonella Typhimurium TA98 at dose range of 0-10 ug/plate

Row | Structure (SMILES) | Slope [1] [mutants ug-1] | Slope [2] [mutants ug-1] | Slope [3] [mutants ug-1] | Slope [4] [mutants ug-1] | Slope [5] [mutants ug-1]
1 | C(=N\NC1=NCCN1)/c1c2ccccc2c(/C=N/NC2=NCCN2)c2ccccc12 [BISANTRENE] | 1.83 | 0.2 | 0.33 |  | 
2 | O=C1c2c(O)ccc(O)c2C(=O)c2c(NCCNCCO)ccc(NCCNCCO)c21 [MITOXANTRONE] | 0.01 |  |  | 3.52 | 3.04

— ChEMBL document CHEMBL1131105, “Anthracene-9,10-diones as potential anticancer agents: bacterial mutation studies of amido-substituted derivatives reveal an unexpected lack of mutagenicity” (1998)
